# Laboratory results taken from the supplement of paper PMC10307832.
# Key:
# Assay in all cases: relative viability (nuclei count vs DMSO), 5 days (fraction); higher = more cells survive
# [1] = test system: A-427
# In short: (§1)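 Lung cancer cell lines were seeded in 1536-well plates and dosed by pin tool the next day, with either a single drug or a fixed anchor-drug dose combined with five library-drug doses (not always all listed) spaced in √10 steps. Five days later, one step fixed the cells and stained their nuclei (final 0.05% Triton X-100, 1% formaldehyde, 1 ug/ml Hoechst), and nuclei were counted on 4× images. Relative viability is the nuclei count in treated wells divided by the count in vehicle wells, and each value is the median of duplicate plates.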
# [2] = test system: HCC-15
# In short: as §1
# [3] = test system: HCC-78
# In short: as §1
# [4] = test system: HOP-62
# In short: as §1
# [5] = test system: LC-2-ad
# In short: as §1
# [6] = test system: LXF-289
# In short: as §1
# [7] = test system: NCI-H1734
# In short: as §1
# [8] = test system: NCI-H1755
# In short: as §1
# [9] = test system: NCI-H1915
# In short: as §1
# [10] = test system: NCI-H1975
# In short: as §1
# [11] = test system: NCI-H2126
# In short: as §1
# [12] = test system: NCI-H2228
# In short: as §1
# [13] = test system: NCI-H2342
# In short: as §1
# [14] = test system: NCI-H2347
# In short: as §1
# [15] = test system: NCI-H358
# In short: as §1
# [16] = test system: NCI-H647
# In short: as §1
# [17] = test system: PC-3 [JPC-3]
# In short: as §1
# [18] = test system: RERF-LC-KJ
# In short: as §1
# [19] = test system: SK-LU-1
# In short: as §1
# [20] = test system: SW 1573
# In short: as §1
smiles,measurement,setting,value
COc1cc2nccc(Oc3ccc(NC(=O)Nc4cc(C)on4)c(Cl)c3)c2cc1OC [Tivozanib] + COc1cc2c(Oc3ccc(NC(=O)C4(C(=O)Nc5ccc(F)cc5)CC4)cc3F)ccnc2cc1OCCCN1CCOCC1 [Foretinib] (partner 0.25 µM),relative viability,[1]; first compound 0.005 µM,1.03
same,relative viability,[1]; first compound 0.01581 µM,1.11
same,relative viability,[1]; first compound 0.05 µM,1.05
same,relative viability,[1]; first compound 0.1581 µM,1.06
same,relative viability,[1]; first compound 0.5 µM,1.02
same,relative viability,[2]; first compound 0.005 µM,0.915
same,relative viability,[2]; first compound 0.01581 µM,0.994
same,relative viability,[2]; first compound 0.05 µM,0.993
same,relative viability,[2]; first compound 0.1581 µM,1.03
same,relative viability,[2]; first compound 0.5 µM,0.977
same,relative viability,[3]; first compound 0.005 µM,0.539
same,relative viability,[3]; first compound 0.01581 µM,0.543
same,relative viability,[3]; first compound 0.05 µM,0.534
same,relative viability,[3]; first compound 0.1581 µM,0.556
same,relative viability,[3]; first compound 0.5 µM,0.546
same,relative viability,[4]; first compound 0.005 µM,1.18
same,relative viability,[4]; first compound 0.01581 µM,1.05
same,relative viability,[4]; first compound 0.05 µM,1.12
same,relative viability,[4]; first compound 0.1581 µM,1.11
same,relative viability,[4]; first compound 0.5 µM,1.06
same,relative viability,[5]; first compound 0.005 µM,0.917
same,relative viability,[5]; first compound 0.01581 µM,1.02
same,relative viability,[5]; first compound 0.05 µM,0.857
same,relative viability,[5]; first compound 0.1581 µM,0.972
same,relative viability,[5]; first compound 0.5 µM,0.788
same,relative viability,[6]; first compound 0.005 µM,0.945
same,relative viability,[6]; first compound 0.01581 µM,0.933
same,relative viability,[6]; first compound 0.05 µM,0.999
same,relative viability,[6]; first compound 0.1581 µM,0.986
same,relative viability,[6]; first compound 0.5 µM,0.963
same,relative viability,[7]; first compound 0.005 µM,0.88
same,relative viability,[7]; first compound 0.01581 µM,0.888
same,relative viability,[7]; first compound 0.05 µM,0.913
same,relative viability,[7]; first compound 0.1581 µM,0.823
same,relative viability,[7]; first compound 0.5 µM,0.863
same,relative viability,[8]; first compound 0.005 µM,0.916
same,relative viability,[8]; first compound 0.01581 µM,0.865
same,relative viability,[8]; first compound 0.05 µM,0.945
same,relative viability,[8]; first compound 0.1581 µM,0.988
same,relative viability,[8]; first compound 0.5 µM,0.881
same,relative viability,[9]; first compound 0.005 µM,1.08
same,relative viability,[9]; first compound 0.01581 µM,1.07
same,relative viability,[9]; first compound 0.05 µM,1.1
same,relative viability,[9]; first compound 0.1581 µM,1.13
same,relative viability,[9]; first compound 0.5 µM,1.09
same,relative viability,[10]; first compound 0.005 µM,0.938
same,relative viability,[10]; first compound 0.01581 µM,0.967
same,relative viability,[10]; first compound 0.05 µM,1.04
same,relative viability,[10]; first compound 0.1581 µM,0.965
same,relative viability,[10]; first compound 0.5 µM,0.918
same,relative viability,[11]; first compound 0.005 µM,1.24
same,relative viability,[11]; first compound 0.01581 µM,1.11
same,relative viability,[11]; first compound 0.05 µM,1.18
same,relative viability,[11]; first compound 0.5 µM,1.25
same,relative viability,[12]; first compound 0.005 µM,0.887
same,relative viability,[12]; first compound 0.01581 µM,0.985
same,relative viability,[12]; first compound 0.05 µM,1.13
same,relative viability,[12]; first compound 0.1581 µM,0.82
same,relative viability,[12]; first compound 0.5 µM,0.928
same,relative viability,[13]; first compound 0.005 µM,0.96
same,relative viability,[13]; first compound 0.01581 µM,1.11
same,relative viability,[13]; first compound 0.05 µM,1.11
same,relative viability,[13]; first compound 0.5 µM,1.05
same,relative viability,[14]; first compound 0.005 µM,0.905
same,relative viability,[14]; first compound 0.01581 µM,1.09
same,relative viability,[14]; first compound 0.05 µM,0.937
same,relative viability,[14]; first compound 0.5 µM,0.845
same,relative viability,[15]; first compound 0.005 µM,0.571
same,relative viability,[15]; first compound 0.01581 µM,0.672
same,relative viability,[15]; first compound 0.05 µM,0.732
same,relative viability,[15]; first compound 0.1581 µM,0.639
same,relative viability,[15]; first compound 0.5 µM,0.716
same,relative viability,[16]; first compound 0.005 µM,1.05
same,relative viability,[16]; first compound 0.01581 µM,1.28
same,relative viability,[16]; first compound 0.05 µM,1.26
same,relative viability,[16]; first compound 0.1581 µM,1.13
same,relative viability,[16]; first compound 0.5 µM,1.2
same,relative viability,[17]; first compound 0.005 µM,1.01
same,relative viability,[17]; first compound 0.01581 µM,1.07
same,relative viability,[17]; first compound 0.05 µM,1.07
same,relative viability,[17]; first compound 0.1581 µM,1.06
same,relative viability,[17]; first compound 0.5 µM,1.01
same,relative viability,[18]; first compound 0.005 µM,0.821
same,relative viability,[18]; first compound 0.01581 µM,0.79
same,relative viability,[18]; first compound 0.05 µM,0.849
same,relative viability,[18]; first compound 0.1581 µM,0.919
same,relative viability,[18]; first compound 0.5 µM,0.863
same,relative viability,[19]; first compound 0.005 µM,0.794
same,relative viability,[19]; first compound 0.01581 µM,0.863
same,relative viability,[19]; first compound 0.05 µM,0.885
same,relative viability,[19]; first compound 0.1581 µM,0.762
same,relative viability,[19]; first compound 0.5 µM,0.829
same,relative viability,[20]; first compound 0.005 µM,0.784
same,relative viability,[20]; first compound 0.01581 µM,0.828
same,relative viability,[20]; first compound 0.05 µM,0.827
same,relative viability,[20]; first compound 0.1581 µM,0.886
same,relative viability,[20]; first compound 0.5 µM,0.903
Cc1sc2c(c1C)C(c1ccc(Cl)cc1)=N[C@@H](CC(=O)OC(C)(C)C)c1nnc(C)n1-2 [JQ1] + COc1cc2c(Oc3ccc(NC(=O)C4(C(=O)Nc5ccc(F)cc5)CC4)cc3F)ccnc2cc1OCCCN1CCOCC1 [Foretinib] (partner 0.25 µM),relative viability,[1]; first compound 0.04 µM,1.01
same,relative viability,[1]; first compound 0.1265 µM,0.988
same,relative viability,[1]; first compound 0.4 µM,0.913
same,relative viability,[1]; first compound 1.265 µM,0.908
same,relative viability,[1]; first compound 4 µM,0.636
same,relative viability,[2]; first compound 0.04 µM,0.914
same,relative viability,[2]; first compound 0.4 µM,0.767
same,relative viability,[2]; first compound 1.265 µM,0.66
same,relative viability,[2]; first compound 4 µM,0.589
same,relative viability,[3]; first compound 0.04 µM,0.557
same,relative viability,[3]; first compound 0.1265 µM,0.506
same,relative viability,[3]; first compound 0.4 µM,0.495
same,relative viability,[3]; first compound 1.265 µM,0.509
same,relative viability,[3]; first compound 4 µM,0.453
same,relative viability,[4]; first compound 0.04 µM,0.982
same,relative viability,[4]; first compound 0.1265 µM,0.848
same,relative viability,[4]; first compound 0.4 µM,0.348
same,relative viability,[4]; first compound 1.265 µM,0.241
same,relative viability,[4]; first compound 4 µM,0.124
same,relative viability,[5]; first compound 0.04 µM,0.809
same,relative viability,[5]; first compound 0.1265 µM,0.625
same,relative viability,[5]; first compound 0.4 µM,0.538
same,relative viability,[5]; first compound 1.265 µM,0.359
same,relative viability,[5]; first compound 4 µM,0.266
same,relative viability,[6]; first compound 0.04 µM,0.955
same,relative viability,[6]; first compound 0.1265 µM,0.978
same,relative viability,[6]; first compound 0.4 µM,0.762
same,relative viability,[6]; first compound 1.265 µM,0.758
same,relative viability,[6]; first compound 4 µM,0.69
same,relative viability,[7]; first compound 0.04 µM,0.963
same,relative viability,[7]; first compound 0.1265 µM,0.834
same,relative viability,[7]; first compound 0.4 µM,0.872
same,relative viability,[7]; first compound 1.265 µM,0.499
same,relative viability,[7]; first compound 4 µM,0.531
same,relative viability,[8]; first compound 0.04 µM,0.896
same,relative viability,[8]; first compound 0.1265 µM,0.831
same,relative viability,[8]; first compound 0.4 µM,0.945
same,relative viability,[8]; first compound 1.265 µM,0.793
same,relative viability,[8]; first compound 4 µM,0.634
same,relative viability,[9]; first compound 0.04 µM,1.09
same,relative viability,[9]; first compound 0.1265 µM,1.03
same,relative viability,[9]; first compound 0.4 µM,0.732
same,relative viability,[9]; first compound 1.265 µM,0.653
same,relative viability,[9]; first compound 4 µM,0.449
same,relative viability,[10]; first compound 0.04 µM,0.916
same,relative viability,[10]; first compound 0.1265 µM,0.731
same,relative viability,[10]; first compound 0.4 µM,0.713
same,relative viability,[10]; first compound 1.265 µM,0.541
same,relative viability,[10]; first compound 4 µM,0.353
same,relative viability,[11]; first compound 0.04 µM,1.22
same,relative viability,[11]; first compound 0.1265 µM,1.15
same,relative viability,[11]; first compound 0.4 µM,1.03
same,relative viability,[11]; first compound 1.265 µM,0.655
same,relative viability,[11]; first compound 4 µM,0.693
same,relative viability,[12]; first compound 0.04 µM,0.806
same,relative viability,[12]; first compound 0.1265 µM,0.766
same,relative viability,[12]; first compound 0.4 µM,0.647
same,relative viability,[12]; first compound 1.265 µM,0.481
same,relative viability,[12]; first compound 4 µM,0.383
same,relative viability,[13]; first compound 0.04 µM,1.09
same,relative viability,[13]; first compound 0.1265 µM,0.843
same,relative viability,[13]; first compound 0.4 µM,1.08
same,relative viability,[13]; first compound 1.265 µM,0.91
same,relative viability,[13]; first compound 4 µM,0.824
same,relative viability,[14]; first compound 0.04 µM,1.04
same,relative viability,[14]; first compound 0.1265 µM,1.15
same,relative viability,[14]; first compound 0.4 µM,1.02
same,relative viability,[14]; first compound 1.265 µM,0.842
same,relative viability,[14]; first compound 4 µM,0.393
same,relative viability,[15]; first compound 0.04 µM,0.686
same,relative viability,[15]; first compound 0.1265 µM,0.83
same,relative viability,[15]; first compound 0.4 µM,0.685
same,relative viability,[15]; first compound 1.265 µM,0.259
same,relative viability,[15]; first compound 4 µM,0.309
same,relative viability,[16]; first compound 0.04 µM,1.21
same,relative viability,[16]; first compound 0.1265 µM,0.914
same,relative viability,[16]; first compound 0.4 µM,0.841
same,relative viability,[16]; first compound 1.265 µM,0.242
same,relative viability,[16]; first compound 4 µM,0.204
same,relative viability,[17]; first compound 0.04 µM,1.06
same,relative viability,[17]; first compound 0.1265 µM,1.05
same,relative viability,[17]; first compound 0.4 µM,0.75
same,relative viability,[17]; first compound 1.265 µM,0.74
same,relative viability,[17]; first compound 4 µM,0.48
same,relative viability,[18]; first compound 0.04 µM,0.939
same,relative viability,[18]; first compound 0.1265 µM,0.88
same,relative viability,[18]; first compound 0.4 µM,0.942
same,relative viability,[18]; first compound 1.265 µM,0.748
same,relative viability,[18]; first compound 4 µM,0.555
same,relative viability,[19]; first compound 0.04 µM,0.848
same,relative viability,[19]; first compound 0.1265 µM,0.613
same,relative viability,[19]; first compound 0.4 µM,0.787
same,relative viability,[19]; first compound 1.265 µM,0.306
same,relative viability,[19]; first compound 4 µM,0.153
same,relative viability,[20]; first compound 0.04 µM,0.907
same,relative viability,[20]; first compound 0.1265 µM,0.837
same,relative viability,[20]; first compound 0.4 µM,0.777
same,relative viability,[20]; first compound 1.265 µM,0.439
same,relative viability,[20]; first compound 4 µM,0.384
